Measurements taken from BindingDB's records for doi:10.1016/j.bmcl.2014.07.007 (Astrazeneca, 2014).

How the values were obtained:
[1] = target: Phosphatidylinositol 4,5-bisphosphate 3-kinase catalytic subunit beta isoform (Homo sapiens, UniProt P42338); experiment: Inhibition of human recombinant PI3Kbeta assessed as PIP3 production by AlphaScreen assay
[2] = target: Phosphatidylinositol 4,5-bisphosphate 3-kinase catalytic subunit alpha isoform (Homo sapiens, UniProt P42336); experiment: Inhibition of human recombinant PI3Kalpha assessed as PIP3 production by AlphaScreen assay
Phosphatidylinositol 4,5-bisphosphate 3-kinase catalytic subunit alpha isoform, sequence (P42336 whole entry, canonical isoform): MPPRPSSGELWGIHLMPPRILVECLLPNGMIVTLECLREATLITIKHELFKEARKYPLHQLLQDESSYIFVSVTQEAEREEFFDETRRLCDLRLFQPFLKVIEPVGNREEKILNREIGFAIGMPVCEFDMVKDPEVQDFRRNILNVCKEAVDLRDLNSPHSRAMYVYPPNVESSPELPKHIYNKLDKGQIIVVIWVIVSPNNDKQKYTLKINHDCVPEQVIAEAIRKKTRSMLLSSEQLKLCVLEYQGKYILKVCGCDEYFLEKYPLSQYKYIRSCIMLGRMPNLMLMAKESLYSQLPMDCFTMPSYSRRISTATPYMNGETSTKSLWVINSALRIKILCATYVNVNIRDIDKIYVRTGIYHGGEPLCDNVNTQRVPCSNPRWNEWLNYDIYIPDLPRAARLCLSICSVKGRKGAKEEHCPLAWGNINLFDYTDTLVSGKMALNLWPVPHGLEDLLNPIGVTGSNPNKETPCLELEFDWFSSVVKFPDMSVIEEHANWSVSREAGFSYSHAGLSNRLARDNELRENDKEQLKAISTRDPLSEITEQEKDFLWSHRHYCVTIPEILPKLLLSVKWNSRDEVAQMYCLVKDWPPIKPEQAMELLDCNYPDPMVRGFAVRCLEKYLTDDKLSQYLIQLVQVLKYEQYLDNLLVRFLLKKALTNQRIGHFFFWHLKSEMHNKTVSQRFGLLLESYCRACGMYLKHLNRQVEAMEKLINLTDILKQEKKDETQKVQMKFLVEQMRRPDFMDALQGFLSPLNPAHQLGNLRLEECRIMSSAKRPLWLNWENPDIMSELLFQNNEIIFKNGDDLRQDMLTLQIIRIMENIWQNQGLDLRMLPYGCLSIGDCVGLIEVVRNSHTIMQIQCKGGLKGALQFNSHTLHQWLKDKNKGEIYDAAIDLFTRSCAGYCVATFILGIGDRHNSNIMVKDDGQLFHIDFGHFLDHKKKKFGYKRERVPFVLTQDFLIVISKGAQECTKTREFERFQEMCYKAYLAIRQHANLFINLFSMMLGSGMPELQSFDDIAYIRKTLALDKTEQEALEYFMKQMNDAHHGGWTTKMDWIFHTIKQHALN

Phosphatidylinositol 4,5-bisphosphate 3-kinase catalytic subunit beta isoform, sequence (P42338 whole entry, canonical isoform): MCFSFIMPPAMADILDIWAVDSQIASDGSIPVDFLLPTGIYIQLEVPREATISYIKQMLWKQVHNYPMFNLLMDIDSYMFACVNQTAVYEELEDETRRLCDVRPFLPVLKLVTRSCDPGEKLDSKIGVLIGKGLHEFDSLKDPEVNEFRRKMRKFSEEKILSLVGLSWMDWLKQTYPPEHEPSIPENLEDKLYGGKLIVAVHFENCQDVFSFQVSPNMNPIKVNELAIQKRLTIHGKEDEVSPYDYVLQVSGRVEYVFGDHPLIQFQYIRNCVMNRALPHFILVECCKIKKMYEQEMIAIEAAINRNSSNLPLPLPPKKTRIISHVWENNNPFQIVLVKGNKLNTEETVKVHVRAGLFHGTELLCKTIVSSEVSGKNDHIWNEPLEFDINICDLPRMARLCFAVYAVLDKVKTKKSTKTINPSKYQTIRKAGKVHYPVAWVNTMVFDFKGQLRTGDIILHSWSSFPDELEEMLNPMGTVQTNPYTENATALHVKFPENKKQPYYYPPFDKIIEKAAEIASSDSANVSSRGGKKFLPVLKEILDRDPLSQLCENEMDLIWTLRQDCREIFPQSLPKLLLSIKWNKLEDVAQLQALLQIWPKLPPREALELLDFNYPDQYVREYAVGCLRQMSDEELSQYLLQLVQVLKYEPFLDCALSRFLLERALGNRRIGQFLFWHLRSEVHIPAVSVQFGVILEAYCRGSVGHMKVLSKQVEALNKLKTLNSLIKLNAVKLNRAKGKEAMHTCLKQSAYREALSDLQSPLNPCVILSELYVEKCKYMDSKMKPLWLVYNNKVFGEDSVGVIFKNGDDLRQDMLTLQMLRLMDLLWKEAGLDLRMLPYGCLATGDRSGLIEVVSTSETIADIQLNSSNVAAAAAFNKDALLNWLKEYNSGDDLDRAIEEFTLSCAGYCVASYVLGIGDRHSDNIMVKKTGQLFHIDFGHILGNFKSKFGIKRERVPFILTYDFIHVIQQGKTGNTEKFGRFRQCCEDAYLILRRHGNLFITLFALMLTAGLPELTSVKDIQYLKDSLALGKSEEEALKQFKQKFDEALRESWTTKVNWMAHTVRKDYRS

IC50 [1]	IC50 [2]	Compound
4.8 µM	12.1 µM	Cc1cc(C(C)Nc2cccc(C(=O)O)c2)c2nc(N3CCOCC3)cc(=O)n2c1 (centres undefined)
0.035 µM	2.3 µM	CC(Nc1ccccc1)c1cc(C(=O)NCCN(C)C)cn2c(=O)cc(N3CCOCC3)nc12 (centres undefined)
0.4 µM	2.5 µM	COc1ccccc1OC(C)c1cc(C(=O)N(C)CCO)cn2c(=O)cc(N3CCOCC3)nc12 (centres undefined)
0.058 µM	2.2 µM	CC(Nc1ccccc1)c1cc(C(=O)N(C)CCO)cn2c(=O)cc(N3CCOCC3)nc12 (centres undefined)
0.19 µM	10.1 µM	CC(Oc1ccccc1)c1cc(C(=O)N(C)CCO)cn2c(=O)cc(N3CCOCC3)nc12 (centres undefined)
0.2 µM		Cc1cc(OC(C)c2cc(C(=O)N(C)CCO)cn3c(=O)cc(N4CCOCC4)nc23)ccc1F (centres undefined)
0.068 µM	2.5 µM	CC(Nc1ccccc1)c1cc(C(=O)N(C)C)cn2c(=O)cc(N3CCOCC3)nc12 (centres undefined)
0.18 µM	9.4 µM	Cc1cccc(OC(C)c2cc(C(=O)N(C)CCO)cn3c(=O)cc(N4CCOCC4)nc23)c1 (centres undefined)
0.059 µM	0.61 µM	CC(Nc1ccccc1)c1cc(C(=O)O)cn2c(=O)cc(N3CCOCC3)nc12 (centres undefined)
0.34 µM	3.8 µM	CC(Nc1ccccc1)c1cc(C(=O)N(C)CC(=O)O)cn2c(=O)cc(N3CCOCC3)nc12 (centres undefined)
0.047 µM	4.5 µM	COc1cccc(OC(C)c2cc(C(=O)N(C)CCO)cn3c(=O)cc(N4CCOCC4)nc23)c1 (centres undefined)
0.11 µM	1.3 µM	Cc1ccccc1OC(C)c1cc(C(=O)N(C)CCO)cn2c(=O)cc(N3CCOCC3)nc12 (centres undefined)
0.14 µM	6.9 µM	CC(Nc1ccccc1)c1cc(C(=O)N2CCOCC2)cn2c(=O)cc(N3CCOCC3)nc12 (centres undefined)
0.66 µM	3.4 µM	CC(Oc1ccccc1F)c1cc(C(=O)N(C)CCO)cn2c(=O)cc(N3CCOCC3)nc12 (centres undefined)
0.076 µM	4.8 µM	CC(Nc1ccccc1)c1cc(C(=O)NCCN2CCNCC2)cn2c(=O)cc(N3CCOCC3)nc12 (centres undefined)
0.051 µM	1.41 µM	Cc1cc(C(C)Nc2ccccc2-c2nnn[nH]2)c2nc(N3CCOCC3)cc(=O)n2c1 (centres undefined)
1.7 µM	8.2 µM	CC(Oc1cccc(C#N)c1)c1cc(C(=O)N(C)CCO)cn2c(=O)cc(N3CCOCC3)nc12 (centres undefined)
0.031 µM	1.46 µM	Cc1cc(C(C)Nc2cc(Cl)ccc2C(=O)O)c2nc(N3CCOCC3)cc(=O)n2c1 (centres undefined)
0.03 µM	0.33 µM	Cc1cc(C(C)Nc2ccccc2S(=O)(=O)O)c2nc(N3CCOCC3)cc(=O)n2c1 (centres undefined)
0.046 µM	0.6 µM	Cc1c(F)cccc1OC(C)c1cc(C(=O)N(C)CCO)cn2c(=O)cc(N3CCOCC3)nc12 (centres undefined)
